This is an account of results in US12187709B2 (Genentech, Inc., priority 2021, dated 2025).

Usually IC50 stands for the midpoint of a concentration-inhibition curve. Low values mean greater potency, high ones weaker potency. One may read the Kd as the concentration at which binding is half-saturated. Low readings indicate a tighter complex, high ones a looser complex.

The target of one test is c-Cbl (Homo sapiens (Human), UniProt P22681). The test can be described thus: C-Cbl LCK Ub TR-FRET assay (C-cbl Lck HTRF). The test is classed as biochemical. The method, boiled down:
(§1)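 Signal is read once the detection mix has stood 20 min at ambient temperature. Curves are anchored by DMSO as maximum and by omission of LCK as minimum.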

The target of the next test is Cbl-b (Homo sapiens (Human), UniProt Q13191). Kind of test: Cbl-b LCK Ub TR-FRET assay (Cbl-b Lck HTRF). The test is classed as biochemical. Particulars: for IC50: Cbl-b LCK Ub TR-FRET; for fold-selectivity (Cbl-b over C-cbl): ratio C-cbl Lck HTRF IC50 / Cbl-b Lck HTRF IC50. The method, boiled down: as §1
In general terms: TR-FRET usually uses a lanthanide donor and a delayed reading to cut background.

Another test addresses c-Cbl (residues 47-435) (Homo sapiens (Human), UniProt P22681). The test can be described thus: c-Cbl SPR assay. Particulars: 20° C. The test is classed as binding. The essentials:
(§2)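 SPR, multi-cycle, 6-pt 2-fold series, blanks flanking for double referencing; capture 1300-1500 RU; contact 60 s at 40 μl/min; dissoc. 120-1200 s (~4-5 half-lives). 1:1 fit. Chaser variant: single cycle, 5 conc., top 500 nM, 120 s contact, 450 s dissociation.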
(In general: SPR reads the build-up and loss of mass on a sensor chip optically.)

Test [1] addresses Human Cbl-b (residues 40-426) (Homo sapiens (Human), UniProt Q13191). The test can be described thus: Cbl-b SPR assay. The test is classed as binding. The following applies: for Fold of selectivity: C-cbl SPR Kd vs Cbl-b SPR Kd; for Kd: SPR, 20° C. The essentials:
as §2

Sequence of c-Cbl (residues 47-435) (P22681 47-435): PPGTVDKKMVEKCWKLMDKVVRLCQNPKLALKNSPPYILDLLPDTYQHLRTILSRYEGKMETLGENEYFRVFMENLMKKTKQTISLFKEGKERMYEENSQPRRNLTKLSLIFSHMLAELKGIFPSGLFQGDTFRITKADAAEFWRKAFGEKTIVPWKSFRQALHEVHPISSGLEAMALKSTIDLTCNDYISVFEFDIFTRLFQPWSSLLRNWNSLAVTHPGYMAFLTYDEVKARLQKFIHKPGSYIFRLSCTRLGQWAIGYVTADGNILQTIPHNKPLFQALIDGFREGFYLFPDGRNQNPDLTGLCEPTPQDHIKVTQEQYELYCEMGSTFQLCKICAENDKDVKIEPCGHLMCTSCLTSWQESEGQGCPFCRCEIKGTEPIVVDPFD
Sequence of c-Cbl (P22681 47-435): as above
Sequence of Human Cbl-b (residues 40-426) (Q13191 40-426): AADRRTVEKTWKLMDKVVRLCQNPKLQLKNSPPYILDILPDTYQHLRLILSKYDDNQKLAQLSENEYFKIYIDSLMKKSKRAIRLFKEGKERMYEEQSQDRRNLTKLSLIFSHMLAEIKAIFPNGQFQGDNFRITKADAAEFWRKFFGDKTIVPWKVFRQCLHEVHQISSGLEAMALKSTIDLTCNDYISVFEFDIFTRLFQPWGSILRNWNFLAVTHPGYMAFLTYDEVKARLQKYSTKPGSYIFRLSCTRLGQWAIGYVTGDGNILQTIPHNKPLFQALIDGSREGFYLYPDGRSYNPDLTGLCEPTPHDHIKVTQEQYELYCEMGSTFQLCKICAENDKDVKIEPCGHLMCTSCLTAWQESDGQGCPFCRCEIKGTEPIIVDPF
Sequence of Cbl-b (Q13191 40-426): as above

As to `CO[C@H]1C[C@](c2cc(C)cc(N3Cc4c(cc(CNC5(C)CCC5)cc4C(F)(F)F)C3=O)c2)(c2nncn2C)C1` [Compound 230, 2-(3-((1r,3r)-3-methoxy-1-(4-methyl-4H-1,2,4-triazol-3-yl)cyclobutyl)-5-methylphenyl)-6-(((1-methylcyclobutyl)amino)methyl)-4-(trifluoromethyl)isoindolin-1-one], the 50% inhibitory concentration (IC50) against c-Cbl came out at 0.29 µM. Moreover, at Cbl-b, the 50% inhibitory concentration (IC50) was found to be 0.19 µM and the “fold-selectivity (Cbl-b over C-cbl)” value was found to be 1.5x. For the same compound, at c-Cbl (residues 47-435), binding was put at a Kd of 0.17 µM. In test [1], this compound displayed a Fold of selectivity of 2.3× and a Kd of 0.075 µM.
Compound `CO[C@H]1C[C@@](c2cc(NC3CC3)cc(N3Cc4c(cc(CNC5(C)CCC5)cc4C(F)(F)F)C3=O)c2)(c2nncn2C)C1` [Compound 231, 2-(3-(cyclopropylamino)-5-((1s,3s)-3-methoxy-1-(4-methyl-4H-1,2,4-triazol-3-yl)cyclobutyl)phenyl)-6-(((1-methylcyclobutyl)amino)methyl)-4-(trifluoromethyl)isoindolin-1-one] yielded a half-inhibitory concentration (IC50) against c-Cbl of 0.017 µM. Moreover, on Cbl-b, the concentration for half-maximal inhibition (IC50) amounted to 0.011 µM and the “fold-selectivity (Cbl-b over C-cbl)” value came out at 1.5x. This compound also gave a dissociation constant (Kd) at c-Cbl (residues 47-435) of 0.0081 µM. In test [1], the Fold of selectivity turned out to be 5.4× and the affinity, expressed as Kd, was 0.0015 µM.
For the compound `C=CCNc1cc(N2Cc3c(cc(CNC4(C)CCC4)cc3C(F)(F)F)C2=O)cc([C@]2(c3nncn3C)C[C@H](OC)C2)c1` [Compound 232, 2-(3-(allylamino)-5-((1r,3r)-3-methoxy-1-(4-methyl-4H-1,2,4-triazol-3-yl)cyclobutyl)phenyl)-6-(((1-methylcyclobutyl)amino)methyl)-4-(trifluoromethyl)isoindolin-1-one], the IC50 at c-Cbl turned out to be 0.035 µM. Besides, at Cbl-b, the half-maximal inhibitory concentration (IC50) worked out at 0.013 µM and the “fold-selectivity (Cbl-b over C-cbl)” value came to 2.6x. On c-Cbl (residues 47-435), this compound came in with a Kd of 0.013 µM. In test [1], this compound came in with a Fold of selectivity of 9.2× and a dissociation constant (Kd) of 0.0014 µM.
On to `CO[C@H]1C[C@](c2cc(NC3COC3)cc(N3Cc4c(cc(CNC5(C)CCC5)cc4C(F)(F)F)C3=O)c2)(c2nncn2C)C1` [Compound 234, 2-(3-((1r,3r)-3-methoxy-1-(4-methyl-4H-1,2,4-triazol-3-yl)cyclobutyl)-5-(oxetan-3-ylamino)phenyl)-6-(((1-methylcyclobutyl)amino)methyl)-4-(trifluoromethyl)isoindolin-1-one], for which the IC50 against c-Cbl came out at 0.14 µM. On Cbl-b, 0.025 µM corresponded to half-maximal inhibition (IC50) and the “fold-selectivity (Cbl-b over C-cbl)” value is given as 5.6x. Further, the equilibrium dissociation constant (Kd) on c-Cbl (residues 47-435) was 0.076 µM. Moreover, in test [1], the Fold of selectivity is reported as 10× and binding was put at a Kd of 0.0074 µM.
`CCc1cc(N2Cc3c(cc(CNC4(C)CCC4)cc3C(F)(F)F)C2=O)cc([C@]2(c3nncn3C)C[C@@H](OC)C2)c1` [Compound 235, 2-(3-ethyl-5-((1s,3s)-3-methoxy-1-(4-methyl-4H-1,2,4-triazol-3-yl)cyclobutyl)phenyl)-6-(((1-methylcyclobutyl)amino)methyl)-4-(trifluoromethyl)isoindolin-1-one] gave an IC50 against c-Cbl of 0.11 µM. At Cbl-b, the IC50 came out at 0.078 µM and the “fold-selectivity (Cbl-b over C-cbl)” value is reported as 1.4x. Besides, on c-Cbl (residues 47-435), binding was put at a Kd of 0.11 µM. In test [1], the Fold of selectivity turned out to be 2.9× and the Kd was 0.036 µM.
At c-Cbl, `CCc1cc(N2Cc3c(cc(CNC4(C)CCC4)cc3C(F)(F)F)C2=O)cc([C@]2(c3nncn3C)C[C@H](OC)C2)c1` [Compound 236, 2-(3-ethyl-5-((1r,3r)-3-methoxy-1-(4-methyl-4H-1,2,4-triazol-3-yl)cyclobutyl)phenyl)-6-(((1-methylcyclobutyl)amino)methyl)-4-(trifluoromethyl)isoindolin-1-one] yielded a 50% inhibitory concentration (IC50) of 0.065 µM. On Cbl-b, the IC50 was found to be 0.038 µM and the “fold-selectivity (Cbl-b over C-cbl)” value stood at 1.7x. At c-Cbl (residues 47-435), this compound gave a Kd of 0.047 µM. In addition, in test [1], the Fold of selectivity amounted to 2.5× and the equilibrium dissociation constant (Kd) stood at 0.019 µM.
At c-Cbl, `CNc1cc(N2Cc3c(cc(CNC4(C)CCC4)cc3C(F)(F)F)C2=O)cc([C@]2(c3nncn3C)C[C@@H](OC)C2)c1` [Compound 238, 2-(3-((1s,3s)-3-methoxy-1-(4-methyl-4H-1,2,4-triazol-3-yl)cyclobutyl)-5-(methylamino)phenyl)-6-(((1-methylcyclobutyl)amino)methyl)-4-(trifluoromethyl)isoindolin-1-one] displayed an IC50 of 0.014 µM. Besides, at Cbl-b, the half-inhibitory concentration (IC50) came to 0.012 µM and the “fold-selectivity (Cbl-b over C-cbl)” value is 1.1x. The compound also returned a Kd on c-Cbl (residues 47-435) of 0.0058 µM. For the same compound, in test [1], the Fold of selectivity is reported as 2.6× and binding was put at a Kd of 0.0022 µM.
`CNc1cc(N2Cc3c(cc(CNC4(C)CCC4)cc3C(F)(F)F)C2=O)cc([C@]2(c3nncn3C)C[C@H](OC)C2)c1` [Compound 239, 2-(3-((1r,3r)-3-methoxy-1-(4-methyl-4H-1,2,4-triazol-3-yl)cyclobutyl)-5-(methylamino)phenyl)-6-(((1-methylcyclobutyl)amino)methyl)-4-(trifluoromethyl)isoindolin-1-one]: the IC50 against c-Cbl and against Cbl-b was 0.013 µM throughout. Further, the “fold-selectivity (Cbl-b over C-cbl)” value on Cbl-b came to 1.0x. Also, the results for the Kd (at c-Cbl (residues 47-435); in test [1]) were 0.0044 µM and 0.001 µM, respectively. In test [1], the Fold of selectivity amounted to 4.4×.
For the compound `C=CCNc1cc(N2Cc3c(cc(CNC4(C)CCC4)cc3C(F)(F)F)C2=O)cc([C@]2(c3nncn3C)C[C@@H](OC)C2)c1` [Compound 240, 2-(3-(allylamino)-5-((1s,3s)-3-methoxy-1-(4-methyl-4H-1,2,4-triazol-3-yl)cyclobutyl)phenyl)-6-(((1-methylcyclobutyl)amino)methyl)-4-(trifluoromethyl)isoindolin-1-one], at c-Cbl, the IC50 was determined as 0.051 µM. Further, on Cbl-b, half-maximal inhibition (IC50) was put at 0.014 µM and the “fold-selectivity (Cbl-b over C-cbl)” value is 3.7x. Also, on c-Cbl (residues 47-435), the Kd came out at 0.027 µM. In test [1], this compound came in with a Fold of selectivity of 12× and a Kd of 0.0023 µM.
On to `CO[C@H]1C[C@@](c2cc(OC3COC3)cc(N3Cc4c(cc(CNC5(C)CCC5)cc4C(F)(F)F)C3=O)c2)(c2nncn2C)C1` [Compound 241, 2-(3-((1s,3s)-3-methoxy-1-(4-methyl-4H-1,2,4-triazol-3-yl)cyclobutyl)-5-(oxetan-3-yloxy)phenyl)-6-(((1-methylcyclobutyl)amino)methyl)-4-(trifluoromethyl)isoindolin-1-one], for which, on c-Cbl, half-maximal inhibition (IC50) required 0.53 µM. Moreover, at Cbl-b, the IC50 is 0.13 µM and the “fold-selectivity (Cbl-b over C-cbl)” value stood at 4.0x. Also, binding on c-Cbl (residues 47-435) was characterised by a dissociation constant (Kd) of 0.27 µM. Also, in test [1], the Fold of selectivity was 8.6× and binding was characterised by a dissociation constant (Kd) of 0.034 µM.
Compound `CO[C@H]1C[C@](c2cc(OC3COC3)cc(N3Cc4c(cc(CNC5(C)CCC5)cc4C(F)(F)F)C3=O)c2)(c2nncn2C)C1` [Compound 242, 2-(3-((1r,3r)-3-methoxy-1-(4-methyl-4H-1,2,4-triazol-3-yl)cyclobutyl)-5-(oxetan-3-yloxy)phenyl)-6-(((1-methylcyclobutyl)amino)methyl)-4-(trifluoromethyl)isoindolin-1-one] gave an IC50 against c-Cbl of 0.22 µM. On Cbl-b, it took 0.056 µM to reach half-maximal inhibition (IC50) and the “fold-selectivity (Cbl-b over C-cbl)” value was found to be 4.0x. On c-Cbl (residues 47-435), this compound registered a Kd of 0.13 µM. In test [1], this compound registered a Fold of selectivity of 5.5× and a Kd of 0.023 µM.
For the compound `CO[C@H]1C[C@@](c2cc(NC3COC3)cc(N3Cc4c(cc(CNC5(C)CCC5)cc4C(F)(F)F)C3=O)c2)(c2nncn2C)C1` [Compound 243, 2-(3-((1s,3s)-3-methoxy-1-(4-methyl-4H-1,2,4-triazol-3-yl)cyclobutyl)-5-(oxetan-3-ylamino)phenyl)-6-(((1-methylcyclobutyl)amino)methyl)-4-(trifluoromethyl)isoindolin-1-one], the half-maximal inhibitory concentration (IC50) turned out to be 0.29 µM on c-Cbl and 0.064 µM at Cbl-b. Besides, the “fold-selectivity (Cbl-b over C-cbl)” value at Cbl-b came to 4.4x. In addition, the Kd at c-Cbl (residues 47-435) stood at 0.15 µM; in test [1] it was 0.011 µM. The compound further showed a Fold of selectivity in test [1] of 14×.
On c-Cbl, `Cn1cnnc1[C@]1(c2cccc(N3Cc4c(Cl)cc(CNC5(C)CCC5)cc4C3=O)c2)C[C@H](F)C1` [Compound 246, 4-chloro-2-(3-((1s,3s)-3-fluoro-1-(4-methyl-4H-1,2,4-triazol-3-yl)cyclobutyl)phenyl)-6-(((1-methylcyclobutyl)amino)methyl)isoindolin-1-one] registered a half-inhibitory concentration (IC50) of 0.015 µM. Moreover, at Cbl-b, the concentration for half-maximal inhibition (IC50) worked out at 0.0086 µM and the “fold-selectivity (Cbl-b over C-cbl)” value was 1.7x. This compound displayed a dissociation constant Kd on c-Cbl (residues 47-435) of 0.0085 µM. In test [1], this compound showed a Fold of selectivity of 2.1× and an equilibrium dissociation constant (Kd) of 0.0042 µM.
Regarding `Cn1cnnc1[C@]1(c2cccc(N3Cc4c(cc(CNC5(C)CCC5)cc4C(F)F)C3=O)c2)C[C@H](F)C1` [Compound 247, 4-(difluoromethyl)-2-(3-((1s,3s)-3-fluoro-1-(4-methyl-4H-1,2,4-triazol-3-yl)cyclobutyl)phenyl)-6-(((1-methylcyclobutyl)amino)methyl)isoindolin-1-one], on c-Cbl, it took 0.018 µM to reach half-maximal inhibition (IC50). For the same compound, on Cbl-b, 0.0098 µM corresponded to half-maximal inhibition (IC50) and the “fold-selectivity (Cbl-b over C-cbl)” value is on record as 1.9x. Moreover, binding on c-Cbl (residues 47-435) was put at a Kd of 0.012 µM. Further, in test [1], the Fold of selectivity was determined as 5.5× and the Kd was 0.0022 µM.
